Results published in patent US20210283139A1, “BIFUNCTIONAL MOLECULES FOR TARGETING UCHL5” (AMPHISTA THERAPEUTICS LTD, priority 2018, published 2021).

Columns and labels:
Type in all cases: cell-based
[1] = target: T1, Brd4 (Homo sapiens, UniProt O60885); test: Proteasome dependency of Brd4 degradation in HEK293 cells (bortezomib pre-treatment); details: 6 h
T1 construct: endogenous in cells; host or cells: HEK293, HAP1, MV4-11
Procedure: (§1) Immunoblotting. proteins were separated by SDS-PAGE on NuPage 4-12% Bis-Tris gels, followed by transfer to Amersham Protran 0.45 NC nitrocellulose membrane (GE Healthcare) using wet transfer. Membranes were blocked using 5% w/v milk in Tris-buffered saline (TBS) with 0.1% Tween-20. Blots were probed (overnight at 4° C.) using anti-Brd2 (Abcam ab139690, 1:2,000 dilution), anti-Brd3 (Abcam ab50818, 1:500 dilution), and anti-Brd4 (Abcam ab128874, 1:1,000 dilution) primary antibodies, as appropriate. The next day, blots were washed with TBST and incubated (1 hr at RT) with anti-Tubulin hFAB-rhodamine (BioRad, 12004166) primary antibody, and either anti-rabbit IRDye 800CW (Licor 1:10,000 dilution) or anti-mouse IRDye 800CW (Licor 1:10,000 dilution) secondary antibody. Blots were developed using a Bio-Rad ChemiDoc MP Imaging System, and band quantification was performed using Image Studio software (LiCor). Band intensities were normalized to the tubulin loading control and reported as % of the average 0.1% DMSO vehicle intensity. Degradation data was plotted and analysed using Prism (Graphpad, version 8).
(§2) HEK293 (1×10^6) cells were seeded in standard 6-well plates (2 mL medium) overnight before pre-treatment with 10 μM bortezomib. After a 0.5 h pre-incubation time, cells were subsequently treated with vehicle, 1 μM MZ1 or 1 μM 05IB6, yielding a final overall DMSO concentration of 0.2% v/v. After 6 h incubation, cells were washed with DPBS (Gibco) and lysed using 85 μL RIPA buffer (Sigma-Aldrich) supplemented with cOmplete Mini EDTA-free protease inhibitor cocktail (Roche) and benzonase. Lysates were clarified by centrifugation (20,000 g, 10 min, 4° C.) and the total protein content of the supernatant was quantified using a Bradford colorimetric assay. Samples were prepared using equal amounts of total protein and LDS sample buffer (Invitrogen).

[2] = target: T1, Brd4; test: Mechanistic evaluation of Brd4 degradation in HEK293 cells (degrasyn or I-BET726 pre-treatment); details: 6 h
Procedure: as §1
as §2, with “with inhibitors (5” for “with 10”, “μM degrasyn or 1 μM I-BET726).” for “μM bortezomib.”, “vehicle, 0.1” for “vehicle, 1”, “or 0.1” for “or 1”, “μM 05IB9,” for “μM 05IB6,”

[3] = target: T1, Brd4; test: Mechanistic evaluation of Brd4 degradation in HAP1 cells (bortezomib, degrasyn or I-BET726 pre-treatment); details: 6 h
Procedure: as §1
as §2, with “HAP1 (1×10^6)” for “HEK293 (1×10^6)”, “with inhibitors (10” for “with 10”, “μM bortezomib, 5 μM degrasyn or 1 μM I-BET726).” for “μM bortezomib.”, “vehicle, 0.1” for “vehicle, 1”, “or 0.1” for “or 1”, “μM 05IB9,” for “μM 05IB6,”
Representative blots from HAP1 lysates in FIG. 9 show depletion of Brd4 protein levels following 6 h treatment with 0.1 μM 05IB9 or MZ1, in the presence and absence of 5 μM degrasyn and 10 μM bortezomib. Brd4 band intensities were normalized to β-tubulin loading control and reported in FIG. 9B as % of the average 0.1% DMSO vehicle intensity. Each bar is mean±SEM of three independent experiments performed in duplicate (n=3). […] Furthermore, excess […] competes with 05IB9, resulting in reduced degradation of Brd4.

[4] = target: T1, Brd4; test: Immunoblot in MV4-11 cells; details: MV4-11, 6 h, increasing concentrations
Procedure: (§3) MV4-11 (0.7×10^6 cells/mL) were seeded in 10 cm plates (10 mL DMEM supplemented with 10% FBS and L-glutamine) overnight before treatment with compounds at the desired concentration and with a final DMSO concentration of 0.1% v/v. After 6 h incubation time, cells were washed 2× with DPBS (Gibco) and lysed using 85 μL RIPA buffer (Sigma-Aldrich) supplemented with cOmplete Mini EDTA-free protease inhibitor cocktail (Roche) and benzonase. Lysates were clarified by centrifugation (20,000 g, 10 min, 4° C.) and the total protein content of the supernatant was quantified using a Bradford colorimetric assay. Samples were prepared using equal amounts of total protein and LDS sample buffer (Invitrogen). For immunoblot analysis, the following antibodies were used: anti-Brd2 (ab139690, 1:2,000 dilution), anti-Brd3 (ab50818, 1:500 dilution), anti-Brd4 (ab128874, 1:1,000 dilution), anti-c-myc (ab32072, 1:1,000 dilution), anti- total PARP (BD Bioscience #556494; 1:1,000 dilution), anti-cleaved PARP (CST-9541T, 1:1,000 dilution), and anti-Tubulin hFAB-rhodamine (BioRad, 12004166, 1:10,000 dilution).

[5] = test system: c-MYC; test: Immunoblot of c-MYC levels in MV4-11 cells; details: MV4-11, 6 h
Procedure: as §3

[6] = test system: PARP; test: Immunoblot of total and cleaved PARP in MV4-11 cells; details: MV4-11, 6 h
Procedure: as §3

[7] = target: Brd2 (Homo sapiens, UniProt P25440); test: Immunoblot in MV4-11 cells; design: endogenous in cells; host or cells: MV4-11; details: MV4-11, 6 h, increasing concentrations
Chain of Brd2 (P25440 whole entry): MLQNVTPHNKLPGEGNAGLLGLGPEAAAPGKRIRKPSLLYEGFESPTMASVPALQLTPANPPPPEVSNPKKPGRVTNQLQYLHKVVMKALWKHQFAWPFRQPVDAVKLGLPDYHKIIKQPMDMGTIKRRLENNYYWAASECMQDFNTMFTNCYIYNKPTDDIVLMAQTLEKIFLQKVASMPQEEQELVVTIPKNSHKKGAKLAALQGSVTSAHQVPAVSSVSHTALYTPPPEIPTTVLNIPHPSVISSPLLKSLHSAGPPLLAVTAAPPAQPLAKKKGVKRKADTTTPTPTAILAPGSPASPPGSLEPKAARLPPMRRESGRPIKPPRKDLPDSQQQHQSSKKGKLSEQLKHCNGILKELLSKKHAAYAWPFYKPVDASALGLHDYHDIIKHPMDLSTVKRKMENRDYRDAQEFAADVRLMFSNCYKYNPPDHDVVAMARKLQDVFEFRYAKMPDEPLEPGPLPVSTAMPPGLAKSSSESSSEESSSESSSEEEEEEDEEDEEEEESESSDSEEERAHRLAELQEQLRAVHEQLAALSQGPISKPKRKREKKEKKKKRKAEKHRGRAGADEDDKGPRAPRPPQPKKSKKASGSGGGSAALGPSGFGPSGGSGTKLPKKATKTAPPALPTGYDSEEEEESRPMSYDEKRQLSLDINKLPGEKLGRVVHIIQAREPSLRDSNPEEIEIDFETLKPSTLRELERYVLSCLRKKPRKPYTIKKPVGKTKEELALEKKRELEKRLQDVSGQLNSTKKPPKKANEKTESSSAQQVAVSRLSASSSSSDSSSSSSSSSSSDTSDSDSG
Procedure: as §3

[8] = target: Brd3 (Homo sapiens, UniProt Q15059); test: Immunoblot in MV4-11 cells; design: endogenous in cells; host or cells: MV4-11; details: MV4-11, 6 h, increasing concentrations
Chain of Brd3 (Q15059 whole entry): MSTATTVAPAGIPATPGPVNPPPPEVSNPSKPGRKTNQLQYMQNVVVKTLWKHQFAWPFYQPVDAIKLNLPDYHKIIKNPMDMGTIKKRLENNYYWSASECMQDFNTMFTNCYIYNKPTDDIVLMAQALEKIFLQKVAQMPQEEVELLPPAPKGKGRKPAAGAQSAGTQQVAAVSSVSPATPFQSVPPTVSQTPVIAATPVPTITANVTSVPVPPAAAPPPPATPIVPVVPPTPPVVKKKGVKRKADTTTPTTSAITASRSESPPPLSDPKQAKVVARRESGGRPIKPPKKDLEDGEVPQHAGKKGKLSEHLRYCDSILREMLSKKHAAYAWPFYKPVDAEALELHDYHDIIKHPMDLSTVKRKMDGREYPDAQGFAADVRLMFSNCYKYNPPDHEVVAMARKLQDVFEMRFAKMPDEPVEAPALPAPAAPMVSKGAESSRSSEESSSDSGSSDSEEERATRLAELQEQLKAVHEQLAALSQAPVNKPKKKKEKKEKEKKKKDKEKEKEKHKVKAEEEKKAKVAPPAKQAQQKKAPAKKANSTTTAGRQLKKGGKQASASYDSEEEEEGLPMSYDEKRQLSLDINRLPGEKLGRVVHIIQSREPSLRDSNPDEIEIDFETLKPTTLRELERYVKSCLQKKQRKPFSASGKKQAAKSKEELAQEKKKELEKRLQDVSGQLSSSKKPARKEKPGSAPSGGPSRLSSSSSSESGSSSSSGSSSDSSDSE
Procedure: as §3

Row | SMILES | Brd4 degradation in the presence of bortezomib ([1]; HEK293, 1 μM compound, 0.5 h pre-treatment with 10 μM bortezomib) | Brd4 protein levels ([1]; HEK293, 1 μM) | Brd4 degradation in the presence of degrasyn or I-BET726 ([2]; HEK293, 0.1 μM compound, 0.5 h pre-treatment with 5 μM degrasyn or 1 μM I-BET726) | Brd4 protein levels ([2]; HEK293, 0.1 μM) | Brd4 degradation in the presence of bortezomib or degrasyn ([3]; HAP1, 0.1 μM compound, 0.5 h pre-treatment with 10 μM bortezomib or 5 μM degrasyn) | Brd4 protein levels ([3]; HAP1, 0.1 μM) | Brd4 levels [4] | decrease in c-MYC compared with inhibitor and negative control [5] | c-MYC levels ([5]; increasing concentrations) | increase in C-PARP compared with inhibitor and negative control [6] | cleaved PARP ([6]; increasing concentrations) | total PARP levels ([6]; increasing concentrations) | Brd2 levels [7] | Brd3 levels [8]
1 | CCCC(NC(=O)/C(C#N)=C/c1cccc(Br)n1)c1ccc(OCCOCCOCCOCCOCCOCCOCCNC(=O)c2ccc(-c3ccc4c(c3)[C@H](Nc3ccc(Cl)cc3)C[C@H](C)N4C(C)=O)cc2)cc1 (some centres unmarked) [Example 05IB6] | completely blocked | depletion | – | – | – | – | – | – | – | – | – | – | – | –
2 | CCCC(NC(=O)/C(C#N)=C/c1nccs1)c1ccc(OCCOCCOCCOCCOCCOCCOCCNC(=O)c2ccc(-c3ccc4c(c3)[C@H](Nc3ccc(Cl)cc3)C[C@H](C)N4C(C)=O)cc2)cc1 (some centres unmarked) [Example 05IB9] | – | – | completely blocked in the presence of either degrasyn or I-BET726 | depletion | completely blocked in the presence of bortezomib and degrasyn | depletion | depletion | greater than inhibitor (I-BET726) alone and the negative control (05IB11) | depletion | greater than inhibitor (I-BET726) alone and the negative control (05IB11) | increase | depletion | depletion | depletion
